Source: patent publication US7825068B2, “Heterocyclylethylcarboxamide derivatives” (Bayer Cropscience AG, priority 2005, dated 2010)

Experiments:
[1] = system: Pyrenophora teres; test: In vivo test on Pyrenophora teres (preventive spray on barley plants); settings: 330 ppm; comparison compounds of WO 2004/074280
Description: The active ingredient tested is prepared by potter homogenisation in a concentrated suspension type formulation at 100 g/l. […] Barley plants (Express variety) in starter cups, sown on a 50/50 peat soil-pozzolana substrate and grown at 12° C., are treated at the 1-leaf stage (10 cm tall) by spraying with the aqueous suspension described above. Plants, used as controls, are treated with an aqueous solution not containing the active material. After 24 hours, the plants are contaminated by spraying them with an aqueous suspension of Pyrenophora teres spores (12,000 spores per ml). The spores are collected from a 12-day-old culture. The contaminated barley plants are incubated for 24 hours at about 20° C. and at 100% relative humidity, and then for 12 days at 80% relative humidity. Grading is carried out 12 days after the contamination, in comparison with the control plants.

[2] = system: Alternaria brassicae; test: In vivo test on Alternaria brassicae (preventive spray on radish plants); settings: for efficacy against Alternaria brassicae: 330 ppm, comparison compounds of WO 2004/074280
Description: The active ingredient tested is prepared by potter homogenisation in a concentrated suspension type formulation at 100 g/l. […] Radish plants (Pernot variety) in starter cups, sown on a 50/50 peat soil-pozzolana substrate and grown at 18-20° C., are treated at the cotyledon stage by spraying with the aqueous suspension described above. Plants, used as controls, are treated with an aqueous solution not containing the active material. After 24 hours, the plants are contaminated by spraying them with an aqueous suspension of Alternaria brassicae spores (40,000 spores per cm^3). The spores are collected from a 12-13-day-old culture. The contaminated radish plants are incubated for 6-7 days at about 18° C., under a humid atmosphere. Grading is carried out 6 to 7 days after the contamination, in comparison with the control plants.

Compound	efficacy against Pyrenophora teres [1]	efficacy against Alternaria brassicae [2]	protection (good (at least 50%) to total) ([2]; dose of 110 ppm, radish plants (Pernot variety), grading 6 to 7 days after contamination, in comparison with control plants)
Cc1cc(C(=O)NCCc2nc(F)c(F)cc2F)c(C)o1 [Compound B17, 2,5-dimethyl-N-[2-(3,5,6-trifluoropyridin-2-yl)ethyl]-3-furamide]	no efficacy	no efficacy	
CSc1sc(C(=O)NCCc2ncc(C(F)(F)F)cc2Cl)c(I)c1S(=O)(=O)C(C)C [Compound C10, N-{2-[3-chloro-5-(trifluoromethyl)pyridin-2-yl]ethyl}-3-iodo-4-(isopropylsulfonyl)-5-(methylthio)thiophene-2-carboxamide]	no efficacy	no efficacy	
Cn1cccc1C(=O)NCCc1ncc(C(F)(F)F)cc1Cl [Compound F1, N-{2-[3-chloro-5-(trifluoromethyl)pyridin-2-yl]ethyl}-1-methyl-1H-pyrrole-2-carboxamide]	no efficacy	no efficacy	
Cc1nc(-c2ccccc2)sc1C(=O)NCCc1ncc(C(F)(F)F)cc1Cl [Compound H3, N-{2-[3-chloro-5-(trifluoromethyl)pyridin-2-yl]ethyl}-4-methyl-2-phenyl-1,3-thiazole-5-carboxamide]	no efficacy	no efficacy	
Cc1c(C(=O)NCCc2ncc(C(F)(F)F)cc2Cl)cnn1-c1ccccc1 [Compound J9, N-{2-[3-chloro-5-(trifluoromethyl)pyridin-2-yl]ethyl}-5-methyl-1-phenyl-1H-pyrazole-4-carboxamide]	no efficacy	no efficacy	
Cc1cc(C(=O)NCCc2cn(C)nc2C(F)(F)F)c(C(F)(F)F)o1 [Compound J-3]			at least 50%
Cc1onc(-c2ccccc2)c1C(=O)NCCc1ncc(C(F)(F)F)cc1Cl [Compound M3, N-{2-[3-chloro-5-(trifluoromethyl)pyridin-2-yl]ethyl}-5-methyl-3-phenylisoxazole-4-carboxamide]	no efficacy	no efficacy	
O=C(NCCc1ccc(Cl)cn1)c1cccnc1Cl [Compound R32, 2-chloro-N-[2-(5-chloropyridin-2-yl)ethyl]nicotinamide]	no efficacy	no efficacy	
O=C(NCCc1ncc(C(F)(F)F)cc1Cl)C1CCN(C(=O)OCc2ccccc2)CC1 [Compound T1, benzyl 4-[({2-[3-chloro-5-(trifluoromethyl)pyridin-2-yl]ethyl}amino)carbonyl]piperidine-1-carboxylate]	no efficacy	no efficacy	
CC1=C(C(=O)NCCc2ncc(Cl)cc2F)SCCO1 [Compound V9, N-[2-(5-chloro-3-fluoropyridin-2-yl)ethyl]-2-methyl-5,6-dihydro-1,4-oxathiine-3-carboxamide]	no efficacy	no efficacy	
CC1=C(C(=O)NCCc2nc(Cl)ccc2Cl)SCCO1 [Compound V10, N-[2-(3,6-dichloropyridin-2-yl)ethyl]-2-methyl-5,6-dihydro-1,4-oxathiine-3-carboxamide]	no efficacy	no efficacy	
